The subject of assay [1] is ROS 17/2.8 osteosarcoma lung metastases. Put plainly: Treatment of osteosarcoma pulmonary metastasis by intravenous Ad-OC-TK. It counts as in vivo, nude mice. The protocol: Athymic Balb/c (nu/nu) mice at 5 to 6 weeks were purchased from Harlan Co. (Houston, Tex.). […] All mice were maintained in facilities approved by the American Association of Accreditation of Laboratory Animal Care, and all animal studies were conducted in accordance with the principles and procedures outlined in the NIH Guide for the Care and Use of Laboratory Animals.
The osteosarcoma pulmonary metastasis model was established as described above. Ad-OC-TK (5×10^8 PFU per 50 μl) was injected via tail vein twice, at day 7 and 14, after ROS 17/2.8 injection. Daily acyclovir intra peritoneal administration (40 mg/kg body weight) started at day 6 after ROS 17/2.8 tumor cell inoculation and continued for 15 days. All animals were sacrificed and examined on day 25. The lungs were removed, photographed, and weighed, and the metastatic deposits were observed under a low-powered (20×) stereo microscope. Histomorphologic observations were made in all specimens according to a standard procedure. Student's t-test was employed to analyze the statistical significance of differences among control and treatment groups.
We next tested the therapeutic efficacy of intravenous Ad-OC-TK gene therapy for the treatment of osteosarcoma lung metastases. Twenty mice bearing ROS 17/2.8 tumor lung metastases were treated with either PBS (control), Ad-OC-TK alone, ACV alone, or Ad-OC-TK plus ACV. Animals were sacrificed and analyzed on day 25 after ROS 17/2.8 inoculation. Tumor nodules on the lung surface were counted with stereo-optic magnification and the lung wet weights were measured, and all the lung specimens were subjected to histological analysis.

Assay [2] has the same test system. The assay is described as follows: Long term survival study of mice bearing osteosarcoma lung metastases. Format: in vivo, nude mice. The conditions noted are these: generalized Wilcoxon test, 0.005<p<0.01 for combination. How it is done: The end-points of the long term survival study are: animal death or sacrifice upon request by animal care takers because of excessive tumor burden causing animal distress, lethargy, ruffled fur or weight loss. The survival rate of the animals was analyzed by the Kaplan-Meier survival curve. The statistical significance of this study was analyzed with the generalized Wilcoxon test.^18
Twenty-six mice were inoculated with ROS 17/2.8 tumor cells as described above. Animals received either PBS, Ad-OC-TK alone, ACV alone, or Ad-OC-TK plus ACV and survivals were compared. […] Mean survival time was 27.1±2.9 days for the control animals and 36.6±5.8 days for the Ad-OC-TK plus ACV-treated animals (FIG. 6).
FIG. 6. Survival of animals receiving Ad-OC-TK/ACV treatment. Animals bearing osteosarcoma lung metastases were treated with PBS (6 animals), ACV (6 animals), Ad-OC-TK (6 animals), or Ad-OC-TK/ACV (8 animals) as described above. The survival study end-points were animal death or sacrifice per request by animal care personnel for distress, as evidenced by lethargy, ruffled fur or weight loss.

The values that follow come from patent US6596534B1, “Utilization of osteocalcin promoter to deliver therapeutic genes to tumors” (priority 1997, dated 2003).

Entries after “also recorded” stand apart in the source; their conditions may differ.

In the case of `Nc1nc2c(ncn2COCCO)c(=O)[nH]1` [ACV, acyclovir], in assay [1] (day 25, compared with PBS-treated specimens), the “size of pulmonary metastases (histology)” value is on record as “No statistical difference; also recorded: massive pulmonary metastatic tumor nodules”. For the same compound, in assay [1] (day 25 after ROS 17/2.8 inoculation, Ad-OC-TK 5×10^8 PFU tail vein day 7 and 14, ACV 40 mg/kg i.p. daily for 15 days, p<0.0001 for combination vs PBS), the “number of metastatic tumor nodules on the lung surface” value is listed as “No statistical difference; also recorded: no significant differences”. Moreover, in assay [1] (day 25 after ROS 17/2.8 inoculation, same regimen, p=0.0005 for combination vs PBS), the lung wet weight entry was “no significant differences”. For the same compound, the “survival compared with controls” value in assay [2] is listed as “No obvious difference in survival”.
